From patent publication US9487483B2, “Complement pathway modulators and uses thereof” (priority 2012, dated 2016)

target: Recombinant human factor D (Homo sapiens (Human), UniProt P00746); assay: biochemical; type: biochemical; conditions: Factor D inhibition data using Method 1; substrate Z-Lys-thiobenzyl, fluorescence readout; read-out: IC50
Sequence (P00746 26-253): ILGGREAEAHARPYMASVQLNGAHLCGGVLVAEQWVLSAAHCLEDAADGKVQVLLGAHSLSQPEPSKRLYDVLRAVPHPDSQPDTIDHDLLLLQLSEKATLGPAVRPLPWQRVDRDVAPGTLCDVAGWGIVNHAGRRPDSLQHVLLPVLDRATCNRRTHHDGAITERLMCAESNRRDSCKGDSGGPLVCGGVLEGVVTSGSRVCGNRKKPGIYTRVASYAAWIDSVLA
Experimental: Human Complement Factor D Assay: Method 1
Recombinant human factor D (expressed in E. coli and purified using standard methods) at 10 nM concentration is incubated with test compound at various concentrations for 1 hour at room temperature in 0.1 M Hepes buffer, pH 7.5, containing 1 mM MgCl2, 1 M NaCl and 0.05% CHAPS. […] IC50 values are calculated from percentage of inhibition of complement factor D-activity as a function of test compound concentration.

Structure (SMILES) | IC50 [µM]
NC(=O)n1cc(NC(=O)N2[C@@H]3C[C@@H]3C[C@H]2C(=O)NC2CCCCC2)c2ccccc21 [Example 15, (1R,3S,5R)-2-Aza-bicyclo[3.1.0]hexane-2,3-dicarboxylic acid 2-[(1-carbamoyl-1H-indol-3-yl)-amide]3-cyclohexylamide] | 1.76
NC(=O)n1cc(NC(=O)N2[C@@H]3C[C@@H]3C[C@H]2C(=O)N[C@@H]2CCC[C@H](C(F)(F)F)C2)c2ccccc21 [Example 26, (1R,3S,5R)-2-Aza-bicyclo[3.1.0]hexane-2,3-dicarboxylic acid 2-[(1-carbamoyl-1H-indol-3-yl)-amide] 3-[((1R,3S)-3-trifluoromethyl-cyclohexyl)-amide]] | 0.026
C[C@@]1(CO)CCC[C@H](NC(=O)[C@@H]2C[C@H]3C[C@H]3N2C(=O)Cn2nc(C(N)=O)c3ccccc32)C1 [Example 128, 1-(2-((1R,3S,5R)-3-(((1S,3R)-3-(hydroxymethyl)-3-methylcyclohexyl)carbamoyl)-2-azabicyclo[3.1.0]hexan-2-yl)-2-oxoethyl)-1H-indazole-3-carboxamide] | 2.21
CC1(C)CCC[C@@H](NC(=O)[C@@H]2C[C@H]3C[C@H]3N2C(=O)Cn2nc(C(N)=O)c3ccncc32)C1 [Example 56, 1-{2-[(1R,3S,5R)-3-((R)-3,3-Dimethyl-cyclohexylcarbamoyl)-2-aza-bicyclo[3.1.0]hex-2-yl]-2-oxo-ethyl}-1H-pyrazolo[3,4-c]pyridine-3-carboxylic acid amide] | 0.037
C[C@H]1CCC[C@@H](NC(=O)[C@@H]2C[C@H]3C[C@H]3N2C(=O)Cn2nc(C(N)=O)c3ccncc32)C1 [Example 51, 1-{2-[(1R,3S,5R)-3-((1R,3S)-3-Methyl-cyclohexylcarbamoyl)-2-aza-bicyclo[3.1.0]hex-2-yl]-2-oxo-ethyl}-1H-pyrazolo[3,4-c]pyridine-3-carboxylic acid amide] | 0.226
CC(=O)c1nn(CC(=O)N2[C@@H]3C[C@@H]3C[C@H]2C(=O)NC2CCCC=C2F)c2ccc(OCc3ncccn3)cc12 (stereo partly drawn) [Example 38, (1R,3S,5R)-2-{2-[3-acetyl-5-(pyrimidin-2-ylmethoxy)-indazol-1-yl]-acetyl}-2-aza-bicyclo[3.1.0]hexane-3-carboxylic acid (2-fluoro-cyclohex-2-enyl)-amide] | 0.282
CC1(C)CCC[C@H](NC(=O)[C@@H]2[C@@H]3C[C@@H]3CN2C(=O)Cn2nc(C(N)=O)c3ccncc32)C1 [Example 87, 1-{2-[(1R,2S,5S)-2-((S)-3,3-Dimethyl-cyclohexylcarbamoyl)-3-aza-bicyclo[3.1.0]hex-3-yl]-2-oxo-ethyl}-1H-pyrazolo[3,4-c]pyridine-3-carboxylic acid amide] | 6.62
CC(=O)c1nn(CC(=O)N2[C@@H]3C[C@@H]3C[C@H]2C(=O)NC2CCCC(OC(F)(F)F)C2)c2ccccc12 (stereo partly drawn) [Example 32, (1R,3S,5R)-2-[2-(3-Acetyl-indazol-1-yl)-acetyl]-2-aza-bicyclo[3.1.0]hexane-3-carboxylic acid (trans-3-trifluoromethoxy-cyclohexyl)-amide] | 0.063
CC1(C)CCC[C@H](NC(=O)[C@@H]2C[C@H]3C[C@H]3N2C(=O)Cn2nc(C(N)=O)c3ccncc32)C1 [Example 55, 1-{2-[(1R,3S,5R)-3-((S)-3,3-Dimethyl-cyclohexylcarbamoyl)-2-aza-bicyclo[3.1.0]hex-2-yl]-2-oxo-ethyl}-1H-pyrazolo[3,4-c]pyridine-3-carboxylic acid amide] | 2.21
CC[C@@H]1CCC[C@H](NC(=O)[C@@H]2C[C@H]3C[C@H]3N2C(=O)Nc2cn(C(N)=O)c3ccccc23)C1 [Example 24, (1R,3S,5R)-2-Aza-bicyclo [3.1.0]hexane-2,3-dicarboxylic acid 2-[(1-carbamoyl-1H-indol-3-yl)-amide] 3-[((1S,3R)-3-ethyl-cyclohexyl)-amide]] | 0.401
CC(=O)c1nn(CC(=O)N2[C@@H]3C[C@@H]3C[C@H]2C(=O)NC2CC(C)(C)C2)c2ccc(OCc3ncccn3)cc12 [Example 103, (1R,3S,5R)-2-{2-[3-Acetyl-5-(pyrimidin-2-ylmethoxy)-indazol-1-yl]-acetyl}-2-aza-bicyclo[3.1.0]hexane-3-carboxylic acid (3,3-dimethyl-cyclobutyl)-amide] | 0.036
CC1(C)CCC[C@@H](NC(=O)[C@@H]2C[C@H]3C[C@H]3N2C(=O)Cn2nc(C(N)=O)c3ccccc32)C1 [Example 54, 1-{2-[(1R,3S,5R)-3-((R)-3,3-Dimethyl-cyclohexylcarbamoyl)-2-aza-bicyclo[3.1.0]hex-2-yl]-2-oxo-ethyl}-1H-indazole-3-carboxylic acid amide] | 0.057
CC(=O)c1nn(CC(=O)N2[C@@H]3C[C@@H]3C[C@H]2C(=O)NC2CCC(F)(F)CC2)c2cnccc12 [Example 11, (1R,3S,5R)-2-[2-(3-Acetyl-pyrazolo[3,4-c]pyridin-1-yl)-acetyl]-2-aza-bicyclo[3.1.0]hexane-3-carboxylic acid (4,4-difluoro-cyclohexyl)-amide] | 3.02
Cc1cc2c(C(N)=O)nn(CC(=O)N3[C@@H]4C[C@@H]4C[C@H]3C(=O)N[C@@H]3CCCC(C)(C)C3)c2cn1 [Example 63, 1-{2-[(1R,3S,5R)-3-((R)-3,3-Dimethyl-cyclohexylcarbamoyl)-2-aza-bicyclo[3.1.0]hex-2-yl]-2-oxo-ethyl}-5-methyl-1H-pyrazolo[3,4-c] pyridine-3-carboxylic acid amide] | 0.049
CC1(C)CCC[C@@H](NC(=O)[C@@H]2C[C@@H](F)CN2C(=O)Nc2cn(C(N)=O)c3ccccc23)C1 [Example 27, (2S,4R)-4-Fluoro-pyrrolidine-1,2-dicarboxylic acid 1-[(1-carbamoyl-1H-indol-3-yl)-amide] 2-[((R)-3,3-dimethyl-cyclohexyl)-amide]] | 0.04
CC(=O)c1nn(CC(=O)N2[C@@H]3C[C@@H]3C[C@H]2C(=O)N[C@@H]2C[C@@H]2F)c2ncccc12 [Example 4, (1R,3S,5R)-2-[2-(3-Acetyl-pyrazolo[3,4-b]pyridin-1-yl)-acetyl]-2-aza-bicyclo[3.1.0]hexane-3-carboxylic acid ((1R,2S)-2-fluoro-cyclopropyl)-amide] | 5.13

same assay, conditions: IC50, Factor D inhibition data using Method 1; substrate Z-Lys-thiobenzyl, fluorescence readout

Structure (SMILES) | IC50 [µM]
COC1(C(F)(F)F)CCCC(NC(=O)[C@@H]2C[C@H]3C[C@H]3N2C(=O)Cn2nc(C(N)=O)c3ccccc32)C1 (single isomer, unassigned) [Example 40] | 4.47
COC1(C(F)(F)F)CCCC(NC(=O)[C@@H]2C[C@H]3C[C@H]3N2C(=O)Cn2nc(C(N)=O)c3ccccc32)C1 (single isomer, unassigned) [Example 39] | 0.085
CC1(C)CCC(NC(=O)[C@@H]2C[C@H]3C[C@H]3N2C(=O)Cn2nc(C(N)=O)c3ccncc32)C1 (single isomer, unassigned) [Example 67] | 0.318

same assay, conditions: read-out: IC50

Structure (SMILES) | IC50 [µM]
CC(=O)c1nn(CC(=O)N2[C@@H]3C[C@@H]3C[C@H]2C(=O)NC2CCCC(F)(F)C2)c2cnccc12 (stereo partly drawn) [Example 9, (1R,3S,5R)-2-[2-(3-Acetyl-pyrazolo[3,4-c]pyridin-1-yl)-acetyl]-2-aza-bicyclo[3.1.0]hexane-3-carboxylic acid (3,3-difluoro-cyclohexyl)-amide] | 1.48
COC1CC(NC(=O)[C@@H]2C[C@H]3C[C@H]3N2C(=O)Cn2nc(C(N)=O)c3ccccc32)CC(C)(C)C1 (stereo partly drawn) [Example 107, 1-{2-[(1R,3S,5R)-3-(cis-5-Methoxy-3,3-dimethyl-cyclohexylcarbamoyl)-2-aza-bicyclo[3.1.0]hex-2-yl]-2-oxo-ethyl}-1H-indazole-3-carboxylic acid amide] | 0.467
Cc1nccc2c(C(N)=O)nn(CC(=O)N3[C@@H]4C[C@@H]4C[C@H]3C(=O)N[C@@H]3CCCC(C)(C)C3)c12 [Example 65, 1-{2-[(1R,3S,5R)-3-((R)-3,3-Dimethyl-cyclohexylcarbamoyl)-2-aza-bicyclo[3.1.0]hex-2-yl]-2-oxo-ethyl}-7-methyl-1H-pyrazolo[3,4-c]pyridine-3-carboxylic acid amide] | 0.038
C[C@H]1CCC[C@@H](NC(=O)[C@@H]2C[C@H]3C[C@H]3N2C(=O)Cn2nc(C(N)=O)c3ccccc32)C1 [Example 47, 1-{2-[(1R,3S,5R)-3-((1R,3S)-3-Methyl-cyclohexylcarbamoyl)-2-aza-bicyclo[3.1.0]hex-2-yl]-2-oxo-ethyl}-1H-indazole-3-carboxylic acid amide] | 0.091
CC1(C)CCC[C@H](NC(=O)[C@@H]2[C@@H]3C[C@@H]3CN2C(=O)Cn2nc(C(N)=O)c3ccccc32)C1 [Example 89, 1-{2-[(1R,2S,5S)-2-((S)-3,3-Dimethyl-cyclohexylcarbamoyl)-3-aza-bicyclo[3.1.0]hex-3-yl]-2-oxo-ethyl}-1H-indazole-3-carboxylic acid amide] | 2.13
CC(=O)c1nn(CC(=O)N2[C@@H]3C[C@@H]3C[C@H]2C(=O)NN2CCCC(C)(C)C2)c2ccc(OCc3ncccn3)cc12 [Example 30, (1R,3S,5R)-2-{2-[3-Acetyl-5-(pyrimidin-2-ylmethoxy)-indazol-1-yl]-acetyl}-2-aza-bicyclo[3.1.0] hexane-3-carboxylic acid (3,3-dimethyl-piperidin-1-yl)-amide] | 0.01
CC(=O)c1nn(CC(=O)N2[C@H](C(=O)N[C@@H]3CCCC(C)(C)C3)C[C@@]3(CO)C[C@@H]23)c2cnccc12 [Example 121, (1R,3S,5S)-2-[2-(3-Acetyl-pyrazolo[3,4-c]pyridin-1-yl)-acetyl]-5-hydroxymethyl-2-aza-bicyclo[3.1.0]hexane-3-carboxylic acid ((R)-3,3-dimethyl-cyclohexyl)-amide] | 0.015
CC1=CC(NC(=O)[C@@H]2C[C@H]3C[C@H]3N2C(=O)Cn2nc(C(N)=O)c3ccccc32)CCC1 (stereo partly drawn) [Example 74, 1-{2-[(1R,3S,5R)-3-(3-Methyl-cyclohex-2-enylcarbamoyl)-2-aza-bicyclo[3.1.0]hex-2-yl]-2-oxo-ethyl}-1H-indazole-3-carboxylic acid amide] | 0.132
COC1(C)CCCC(NC(=O)[C@@H]2C[C@H]3C[C@H]3N2C(=O)Cn2nc(C(N)=O)c3ccccc32)C1 (mixture of isomers) [Example 126, 1-(2-((1R,3S,5R)-3-(((1R,3S) and (1S,3R)-3-methoxy-3-methylcyclohexyl)carbamoyl)-2-azabicyclo[3.1.0]hexan-2-yl)-2-oxoethyl)-1H-indazole-3-carboxamide] | 0.2
